Measurements taken from patent US9012458B2, “Antitumor agent using compounds having kinase inhibitory effect in combination” (Eisai R&D Management Co., Ltd., priority 2010, dated 2015).
Where a name gives a salt, the structure may show the parent alone.

Tested on: human ovarian cancer cell line (A2780)
Experiment: Combined effect in model animal transplanted with human ovarian cancer cell line (A2780)
Assay type: in vivo
Conditions: A2780 s.c. in nude mouse, Compound A 10 mg/kg, Compound B 100 mg/kg, oral once daily, average ± standard deviation
Description: The human ovarian cancer cell line A2780 (ATCC) was cultured using a 10% FBS-containing RPMI 1640 medium (SIGMA) in a 5% CO2 incubator under the condition of 37° C. When the cells reached a state of approximately 80% confluency, the cells were collected using trypsin-EDTA. To these cells, a Hanks' Balanced Salt Solution containing 50% Matrigel was added to prepare a suspension at a concentration of 5.0×10^7 cells/mL. The cell suspension thus obtained was subcutaneously transplanted at the lateral side of the body of a nude mouse (CAnN.Cg-Foxn1nu/CrlCrlj, Charles River Laboratories Japan, Inc.) in an amount of 0.1 mL, where each group contained six mice. Compound A (10 mg/kg, once daily, for 10 days) and Compound B (100 mg/kg, once daily, for 10 days) were orally administered, either individually or both in a row.
Setting the initial day of administration at Day 0, the major axis and the minor axis of a tumor developed in each mouse were measured using Digimatic caliper (Mitsutoyo Corporation) thereafter on Day 3, 5, 8, and 10.
The tumor volume and the relative tumor volume were calculated according to the equations below. TV=major axis (mm)×minor axis^2 (mm^2)/2 RTV=TV on the day of measurement/TV on the initial day of administration

Row | SMILES | RTV (relative tumor volume) Day 3 | RTV (relative tumor volume) Day 5 | RTV (relative tumor volume) Day 8 | RTV (relative tumor volume) Day 10
1 | CN1CCN(C2CCN(C(=O)Nc3cc(Oc4ccc(NC(=O)C5(C(=O)Nc6ccc(F)cc6)CC5)c(F)c4)ccn3)CC2)CC1 [Compound B, N-(2-fluoro-4-{[2-({[4-(4-methylpiperazin-1-yl)piperidin-1-yl]carbonyl}amino)pyridin-4-yl]oxy}phenyl)-N′-(4-fluorophenyl)cyclopropane-1,1-dicarboxamide tartrate] | 2.23 ± 0.42 | 7.01 ± 1.54 | 15.70 ± 2.27 | 21.29 ± 2.76
2 | COc1cc2nccc(Oc3ccc(NC(=O)NC4CC4)c(Cl)c3)c2cc1C(N)=O [Compound A, 4-(3-chloro-4-(cyclopropylaminocarbonyl)aminophenoxy)-7-methoxy-6-quinolinecarboxamide mesylate] | 1.92 ± 0.17 | 4.77 ± 0.85 | 9.51 ± 2.44 | 12.37 ± 3.53
